The source of these data is ChEMBL document CHEMBL1151783 (Bioorg Med Chem Lett, 2008).

Values after ≈ are worked out from the molar mass of the structure shown. Active and inactive are the calls of the source. No cut-off for these calls is given here.

A short description of data set [1]: Binding affinity to bovine tubulin after 2 hrs by fluorescence polarization assay. Also on record: species or system Bos taurus. A general note: Fluorescence polarisation rises when a labelled molecule tumbles more slowly, as on binding a larger partner.
The nature of data set [2]: Displacement of [3H]colchicine from bovine tubulin after 2 hrs by fluorescence polarization assay. Also on record: species or system Bos taurus.
The species named for data set [3] is Bos taurus. Kind of data set: Inhibition of bovine tubulin polymerization at 5 uM.
The next data set relates to HeLa. Kind of data set: Cytotoxicity against human HeLa cells after 48 hrs by luminescence cell viability assay. The data set is classed as functional, cell-based.
For the next data set, the system named is HepG2. As to the kind of experiment: Cytotoxicity against human HepG2 cells after 48 hrs by luminescence cell viability assay. It counts as functional, cell-based. Particulars: HepG2, 48 h.
Another data set deals with Raji. As to the kind of experiment: Cytotoxicity against human Raji cells after 48 hrs by luminescence cell viability assay. It counts as functional, cell-based.
Data set [4] relates to Vero. As to the kind of experiment: Cytotoxicity against african green monkey Vero cells after 48 hrs by luminescence cell viability assay. The data set is classed as cell-based. Particulars: Chlorocebus sabaeus.
A short description of data set [5]: Membrane permeability by PAMPA. It counts as ADME. Particulars: for Papp: read-out: permeability. (The PAMPA barrier holds no transporters, so it reflects passive diffusion.)
Data set [6] is described as follows: Solubility in phosphate buffer saline after 2 hrs. The data set is classed as physicochemical. To be noted: phosphate buffered saline.
In data set [7] the test system is Vero. Kind of data set: Induction of apoptosis in african green monkey Vero cells assessed as caspase 3/7 activity after 18 hrs […]. It counts as functional, cell-based. To be noted: Chlorocebus sabaeus. In general terms: A flow cytometer gives signals particle by particle.
The subject of data set [8] is Vero. Kind of data set: Cell cycle arrest in african green monkey Vero cells assessed as accumulation at G2/M phase after 18 hrs by flow cytometry using propidium iodide staining. It counts as functional, cell-based. Particulars: Chlorocebus sabaeus.
The species named for data set [9] is Bos taurus. Kind of data set: Binding affinity to bovine tubulin at 10 uM after 2 hrs by fluorescence polarization assay.
Data set [10] is filed under the species Bos taurus. Kind of data set: Inhibition of bovine tubulin polymerization at 10 uM.

In general, Kd refers to the equilibrium constant for the complex coming apart. By IC50 is commonly meant the concentration needed to halve the response being measured. Broadly, the EC50 is the concentration giving half of the maximal effect. What is called solubility is the dissolved amount per volume that the medium holds. In data set [1], `COc1cc2c(c(OC)c1OC)-c1ccc(OC)c(=O)cc1[C@@H](NC(=O)CCCCCNC(=O)COc1ccc(/C=C/C3=[N+]4C(=Cc5ccc(-c6ccc[nH]6)n5[B-]4(F)F)C=C3)cc1)CC2` registered a Kd of 7.6 µM. The compound also showed an IC50 in [2] of 6.4 µM. Moreover, the outcome in the data set listed under Bos taurus [3] was Active. The half-maximal effective concentration (EC50) is 1.9 µM in the data set on HeLa; 1.2 µM with HepG2; 0.65 µM in the data set with Raji; more than 10 µM in the data set with Vero [4]; 10.5 µM with Vero [7]; 6.8 µM in the data set with Vero [8]. In addition, in data set [5], the Papp is less than 10 ×10⁻⁶ cm/s. The solubility at 2 h in data set [6] is less than 10 µM.
For the compound `COc1cc2c(c(OC)c1OC)-c1ccc(OC)c(=O)cc1[C@@H](NC(=O)CCC1=[N+]3C(=Cc4cccn4[B-]3(F)F)C=C1)CC2`, the Kd in data set [1] was found to be 5.8 µM. Moreover, the outcome in the data set filed under Bos taurus [9] and in the data set listed under Bos taurus [3] was Active. Besides, in [2], the IC50 turned out to be 3.9 µM. Moreover, the EC50 in the data set with HeLa was 0.36 µM; in the data set with HepG2, 0.18 µM; in the data set on Raji it was 0.138 µM; with Vero [4], 2.3 µM; with Vero [7] it was 2.6 µM; with Vero [8], 0.96 µM. For the same compound, the Papp in [5] amounted to 108 ×10⁻⁶ cm/s. The same compound displayed a solubility at 2 h in [6] of 32 µM (≈ 19.3 µg/mL).
Regarding `CC(=O)O[C@H]1C(=O)[C@@]2(C)[C@H]([C@H](OC(=O)c3ccccc3)[C@]3(O)C[C@H](OC(=O)[C@H](O)[C@@H](NC(=O)c4ccccc4)c4ccccc4)C(C)=C1C3(C)C)[C@]1(OC(C)=O)CO[C@@H]1C[C@@H]2O`, in the data set filed under Bos taurus [10], the outcome was inactive.
As to `COc1cc2c(c(OC)c1OC)-c1ccc(OC)c(=O)cc1[C@@H](NC(C)=O)CC2` [COLCHICINE], the outcome in the data set listed under Bos taurus [3] was Active. In data set [5], this compound yielded a permeability of 415 ×10⁻⁶ cm/s. This compound returned a solubility at 2 h in [6] of more than 250 µM.
